Experimental data from PMC4452589, “An evaluation of the brain distribution of [^11C]GSK1034702, a muscarinic-1 (M1) positive allosteric modulator in the living human brain using positron emission tomography” (EJNMMI Research, 2014).

Assays:
[1] = system: human m2-5AChR receptors; set-up: method as in earlier work; settings: versus m1AChR; cited from earlier work
[2] = plasma protein binding by equilibrium dialysis, human; type: in vitro ADME; settings: equilibrium dialysis 5 h
Protocol: (§1) The in vitro brain and plasma protein binding of GSK1034702 across a range of species was determined using equilibrium dialysis as described previously.

[3] = fP/fND ratio from equilibrium dialysis (expected VT for passive diffusion), primate; type: in vitro ADME; settings: primate brain; monkey fP and monkey brain fND
Description: If a value for fND can be obtained, then the assumption of passive diffusion across the BBB can be tested. Under the conditions of passive diffusion, at equilibrium, CFT = CFP, and Eq. 3 is simplified to:4 VT=fP/fND
A VT measurement from a PET biodistribution study can be compared to the fP/fND ratio, and passive diffusion can be assumed if the two are similar. Equilibrium dialysis provides a practical method for measurements of brain tissue fND (and also fP if necessary).
Regional TACs with an arterial plasma metabolite- corrected input function were fitted using compartmental analyses, and estimates of the delivery rate constant for transfer from arterial plasma to tissue (K1) and VT were obtained. VT estimates derived were compared to in vitro estimates derived from equilibrium dialysis to investigate the BBB transport process.
as §1

[4] = plasma concentration after single 5-mg oral dose in humans; type: in vivo; settings: human, read-out: GSK1034702 plasma concentration at start of post-dose PET scan
Protocol: Serial venous blood samples were obtained at 0, 1, 2, 3, 4 and 5.5 h after the administration of a single oral dose of 5 mg of GSK1034702, to estimate the time course of GSK1034702 plasma concentration. Plasma samples were analysed using a validated analytical method.

[5] = system: human recombinant m1AChR; set-up: method as in earlier work; settings: cited from earlier work
[6] = safety and tolerability of single 5-mg oral dose in healthy males; type: in vivo, human; settings: single oral dose of 5 mg
Protocol: An open-label PET study (GSK study number 110771) was conducted to assess the transport of [^11C]GSK1034702 across the BBB and its distribution in the living human brain. Four healthy males aged between 35 and 55 years old, with body mass index (BMI) between 19.0 and 29.0 kg/m^2, and the absence of past or present neurological, medical or psychiatric illnesses and concomitant medications were enrolled. Clinical status was assessed by history, physical examination, routine blood tests, urine toxicology and electrocardiogram. All subjects provided written informed consent. The study was approved by the Edinburgh Independent Ethics Committee for Medical Research and permission to administer radioisotopes was obtained from the Administration of Radioactive Substances Advisory Committee of the UK. Subjects were recruited by and monitored by the Hammersmith Medicines Research (HMR) clinic. All scanning procedures were performed at the GlaxoSmithKline Clinical Imaging Center, Hammersmith Hospital, London.
Each subject underwent a single study day, during which PET imaging was performed. T1-weighted structural MRI scan was performed for all subjects to provide neuroanatomical information. A tracer dose of [^11C]GSK1034702 (mass <50 μg) was administered as an IV bolus immediately before each PET scan. During the scanning day, each subject received a baseline [^11C]GSK1034702 scan, followed by a single 5-mg oral dose (p.o.) of […] and a subsequent [^11C]GSK1034702 scan approximately 4 h post-dose. Subjects returned to the clinic for a follow-up visit 7 to 14 days following the oral dose of GSK1034702.

[7] = set-up: method as in PMID 22932339; settings: healthy smokers, nicotine abstinence model of cognitive dysfunction; cited from earlier work
[8] = brain tissue binding by equilibrium dialysis, monkey; type: in vitro ADME; settings: equilibrium dialysis 5 h
Protocol: as §1

[9] = plasma protein binding by equilibrium dialysis, monkey; type: in vitro ADME; settings: equilibrium dialysis 5 h
Protocol: as §1

[10] = plasma protein binding by equilibrium dialysis, dog; type: in vitro ADME; settings: equilibrium dialysis 5 h
Protocol: as §1

[11] = brain tissue binding by equilibrium dialysis, rat; type: in vitro ADME; settings: equilibrium dialysis 5 h; for Brain tissue binding: 1 μg/mL, mean ± SD, n = 6; for fraction unbound at 5 h, 1 μg/mL: brain tissue, read-out: f ND (brain-free fraction)
Protocol: as §1

[12] = brain tissue binding by equilibrium dialysis, mouse; type: in vitro ADME; settings: equilibrium dialysis 5 h
Protocol: as §1

[13] = set-up: method as in GlaxoSmithKline (GSK) data on file; settings: rat; ref GlaxoSmithKline (GSK) data on file; cited from earlier work
[14] = mean ± SD, n = 6, read-out: Plasma protein binding (converted)
[15] = read-out: f P (plasma-free fraction)
[16] = brain tissue, read-out: f ND (brain-free fraction)

fraction unbound at 5 h, 1 μg/mL [2, 14]: 0.442
fraction unbound at 5 h, 1 μg/mL [2, 15]: 0.44
fP/fND ratio (expected VT if passive diffusion) [3]: 3.4
concentration at 3.2 h ([4]; Subject 2, 3.2 hours post dose): 7.9 ng/mL
concentration at 4.4 h ([4]; Subject 3, 4.4 hours post dose): 13.2 ng/mL
concentration at 3.8 h ([4]; Subject 4, 3.8 hours post dose): 10.4 ng/mL
fraction unbound at 5 h, 1 μg/mL [8, 16]: 0.17
Brain tissue binding ([8]; 1 μg/mL, mean ± SD, n = 6): 83.2 (±1.1) %
fraction unbound at 5 h, 1 μg/mL [9, 14]: 0.583
fraction unbound at 5 h, 1 μg/mL [9, 15]: 0.58
fraction unbound at 5 h, 1 μg/mL [10, 14]: 0.555
fraction unbound at 5 h, 1 μg/mL [10, 15]: 0.56
Brain tissue binding ([11]; Rat (CD)): 87.7 (±0.5) %
Brain tissue binding ([11]; Rat (LH)): 84.9 (±1.0) %
fraction unbound at 5 h, 1 μg/mL ([11]; Rat (CD)): 0.12
fraction unbound at 5 h, 1 μg/mL ([11]; Rat (LH)): 0.15
fraction unbound at 5 h, 1 μg/mL [12, 16]: 0.13
Brain tissue binding ([12]; 1 μg/mL, mean ± SD, n = 6): 86.7 (±0.6) %
SMILES: Cc1cc(F)c2[nH]c(=O)n(C3CCN(C4CCOCC4)CC3)c2c1 [GSK1034702]
selectivity over human m2-5AChR receptors [1]: 100 fold
pEC50 ([5]; allosteric agonist at human recombinant m1AChR): 8.1 ± 0.1
intrinsic activity (IA) ([5]; human recombinant m1AChR): 0.78 ± 0.02
serious adverse events [6]: No serious adverse events
tolerability ([6]; healthy male subjects): well tolerated
adverse events ([6]; one subject, salivary hypersecretion and dysgeusia, considered drug-related): two mild and transient adverse events
effect on episodic memory [7]: improved episodic memory
brain/blood ratio [13]: 0.6
